The values that follow come from patent US20030170643A1, “Regulation of apoB treatment and drug screening for cardiovascular and metabolic disorders or syndromes” (priority 1999, published 2003).

For this assay, the target named is T1, purified bovine MTP (Bos taurus, UniProt P55156).
T1 sequence (P55156 12-887): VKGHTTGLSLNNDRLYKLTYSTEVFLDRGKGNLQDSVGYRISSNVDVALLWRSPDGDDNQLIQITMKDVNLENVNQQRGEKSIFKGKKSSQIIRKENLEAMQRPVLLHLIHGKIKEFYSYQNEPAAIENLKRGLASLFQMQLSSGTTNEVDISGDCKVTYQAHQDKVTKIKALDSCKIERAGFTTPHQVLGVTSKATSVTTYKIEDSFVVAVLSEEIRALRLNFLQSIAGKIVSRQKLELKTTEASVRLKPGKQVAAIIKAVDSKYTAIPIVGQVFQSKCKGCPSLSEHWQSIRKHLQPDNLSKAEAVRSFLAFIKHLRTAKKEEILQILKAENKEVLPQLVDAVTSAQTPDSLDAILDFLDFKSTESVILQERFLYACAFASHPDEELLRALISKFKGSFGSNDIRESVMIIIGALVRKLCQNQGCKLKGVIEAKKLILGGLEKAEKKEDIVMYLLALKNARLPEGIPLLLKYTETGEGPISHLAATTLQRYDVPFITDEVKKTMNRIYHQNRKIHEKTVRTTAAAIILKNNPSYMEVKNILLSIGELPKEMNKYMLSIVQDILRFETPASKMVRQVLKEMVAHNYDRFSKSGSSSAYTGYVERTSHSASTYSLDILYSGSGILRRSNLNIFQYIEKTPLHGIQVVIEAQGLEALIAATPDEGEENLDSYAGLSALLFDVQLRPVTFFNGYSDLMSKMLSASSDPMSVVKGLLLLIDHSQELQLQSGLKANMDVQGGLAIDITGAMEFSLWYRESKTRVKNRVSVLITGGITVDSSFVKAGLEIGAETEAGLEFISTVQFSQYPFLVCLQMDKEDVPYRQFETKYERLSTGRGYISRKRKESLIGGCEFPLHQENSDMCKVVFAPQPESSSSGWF
T1 sequence (P05307 21-510 partner): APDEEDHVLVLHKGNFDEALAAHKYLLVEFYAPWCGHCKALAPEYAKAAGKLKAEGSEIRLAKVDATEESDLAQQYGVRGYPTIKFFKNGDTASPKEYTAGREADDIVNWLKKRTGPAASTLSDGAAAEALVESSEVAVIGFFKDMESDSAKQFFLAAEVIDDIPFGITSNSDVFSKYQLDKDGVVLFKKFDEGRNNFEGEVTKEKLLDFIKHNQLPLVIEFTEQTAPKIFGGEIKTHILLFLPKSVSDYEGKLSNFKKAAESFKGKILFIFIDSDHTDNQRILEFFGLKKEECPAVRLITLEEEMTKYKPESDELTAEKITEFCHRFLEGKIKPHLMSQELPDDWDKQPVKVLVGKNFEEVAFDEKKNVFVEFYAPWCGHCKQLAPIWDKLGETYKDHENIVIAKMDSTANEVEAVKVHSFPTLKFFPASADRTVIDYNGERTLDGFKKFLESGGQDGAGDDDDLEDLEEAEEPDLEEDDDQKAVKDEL
Kind of assay: MTP-mediated transfer of lipid classes biosynthetically labeled with OA or EPA (donor/acceptor vesicles). The format is biochemical. As for the experimental part:
FIG. 5 illustrates that Ω-3 lipids are good substrates for MTP-mediated lipid transfer. HepG2 cells were incubated for 14 hr at 37° C. with ^14C-labeled oleate (OA) or ^14C-labeled EPA complexed to BSA (final concentration of either fatty acid was 0.8 mM). Total lipids were extracted from the washed cell monolayers and separated by preparative TLC into triglyceride (TG), cholesteryl ester (CE), phosphatidylcholine (PC), and phosphatidylethanolamine (PE). The isolated lipid classes were then incorporated (to a content of 0.5 mol %) into vesicles that were used as donors in lipid transfer assays with recombinant MTP. Results were normalized to the transfer of [^14C]triolein and are shown as mean values ±SE (n=4).
Three methods were used to assess possible effects of Ω-3 fatty acids on cellular MTP function. First, rat primary hepatocytes were incubated with BSA, OA, or EPA, and then MTP activity in cell lysates was measured using a fluorescent assay (Roar Biomedical, New York, NY). Second, to determine if lipid classes synthesized in the presence of OA or Ω-3 fatty acid are equivalent substrates for MTP, primary rat hepatocytes or HepG2 cells were incubated with tritiated OA or EPA, total cellular lipids were extracted into isopropanol, and biosynthetically labeled cholesteryl ester, triglyceride, and phospholipids were separated by preparative thin layer chromatography. Each of these isolated lipids was incorporated into vesicles that were used as donors in a transfer reaction with acceptor vesicles and […] of purified bovine MTP, as described in Jamil, H., Dickson, J. K., Jr., Chu, C. H., Lago, M. W., Rinehart, J. K., Biller, S. A., Gregg, R. E., and Wetterau, J. R. (1995) J Biol Chem 270(12), 6549-54. As an internal control for lipid transfer, each donor vesicle also contained [^14C]triolein. Third, to determine if Ω-3 lipids inhibit MTP-mediated transfer of non-Ω-3 lipids, artificial donor vesicles were prepared containing either labeled triolein or labeled POPC. The majority of lipid mass in these vesicles was unlabeled phosphatidylcholine that contained either 100% oleate esterified at the sn-2 position (control) or a mixture of 70% oleate and 30% DHA or 30% EPA. Transfer of the labeled lipids to acceptor vesicles in the presence of 50 μg of purified bovine MTP was measured as described in Jamil, H. et al (1995) J Biol Chem 270(12), 6549-54.
An intracellular abundance of relatively poor lipid substrates, produced during incubations of hepatocytes with EPA or DHA, could be functionally equivalent to MTP inhibition. Thus, rat primary hepatocytes and HepG2 cells were incubated with radiolabeled OA or EPA to allow incorporation of these fatty acids into lipid esters. […]

For `CCCCCCCC/C=C\CCCCCCCC(=O)O` [OA, oleic acid], the “MTP-mediated transfer of labeled cholesteryl esters, % of [14C]triolein transfer” value (lipids from fatty acid-treated HepG2 cells, P=0.07) was determined as 20%+4%. The “MTP-mediated transfer of labeled phosphatidylethanolamines, % of [14C]triolein transfer” value (lipids from fatty acid-treated HepG2 cells, P=0.6) came to 1.1%+0.1%. Moreover, under “lipids from fatty acid-treated HepG2 cells, P=0.7”, the “MTP-mediated transfer of labeled phosphatidylcholines, % of [14C]triolein transfer” value is listed as 2.3%+1%. The “MTP-mediated transfer rate of labeled triglycerides, % of [14C]triolein transfer” value (lipids harvested from fatty acid-treated HepG2 cells, P=0.3) is 60%±8%.
